We go through 33 sequences from patent US20240384268A1, “Oligonucleotides” (Hudson Institute of Medical Research, priority 2021, published 2024).

The data set deals with T1, TLR8 (Homo sapiens, UniProt Q9NR97).
T1 sequence (Q9NR97 27-1041): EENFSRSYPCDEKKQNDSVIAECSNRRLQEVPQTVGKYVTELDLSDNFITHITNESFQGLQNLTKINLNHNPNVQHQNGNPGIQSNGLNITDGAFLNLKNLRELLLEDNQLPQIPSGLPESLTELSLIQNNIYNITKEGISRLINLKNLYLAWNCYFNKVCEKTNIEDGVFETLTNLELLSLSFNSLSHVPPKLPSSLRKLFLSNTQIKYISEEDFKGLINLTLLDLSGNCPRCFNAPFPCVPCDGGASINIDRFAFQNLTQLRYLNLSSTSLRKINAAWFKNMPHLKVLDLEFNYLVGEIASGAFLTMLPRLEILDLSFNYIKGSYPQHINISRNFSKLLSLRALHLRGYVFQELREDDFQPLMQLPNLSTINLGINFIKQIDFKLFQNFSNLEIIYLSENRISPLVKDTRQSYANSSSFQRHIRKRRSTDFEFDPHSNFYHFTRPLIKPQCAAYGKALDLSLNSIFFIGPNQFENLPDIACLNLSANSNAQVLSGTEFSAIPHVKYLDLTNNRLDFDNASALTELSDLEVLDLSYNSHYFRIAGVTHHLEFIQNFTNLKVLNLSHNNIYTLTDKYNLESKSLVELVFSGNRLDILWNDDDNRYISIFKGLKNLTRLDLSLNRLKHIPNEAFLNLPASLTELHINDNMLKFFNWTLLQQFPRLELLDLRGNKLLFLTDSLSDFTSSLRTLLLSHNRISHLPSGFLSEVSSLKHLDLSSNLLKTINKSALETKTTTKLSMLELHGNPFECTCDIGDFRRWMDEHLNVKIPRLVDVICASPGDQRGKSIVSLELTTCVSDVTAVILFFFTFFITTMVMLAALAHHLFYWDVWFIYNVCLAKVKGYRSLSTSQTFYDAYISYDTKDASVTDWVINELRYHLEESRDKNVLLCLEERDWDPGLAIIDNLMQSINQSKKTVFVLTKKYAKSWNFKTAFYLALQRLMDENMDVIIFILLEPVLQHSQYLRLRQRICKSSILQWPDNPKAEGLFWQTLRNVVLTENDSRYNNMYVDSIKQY
The experiment in a line: HEK-TLR8 NF-κB-luciferase reporter, R848 or Motolimod stimulation (potentiation or inhibition). It counts as cell-based. Details: expressed in transfected cells; host or cells: 293XLhTLR8 (HEK293). To be noted: averaged NF-κB-Luciferase relative to R848 condition (fold increase); for TLR8 100 nM: MOE-modified ASO at 100 nM; for TLR8 500 nM: MOE-modified ASO at 500 nM. (A reporter such as luciferase makes a cellular process visible.)

Consider “AACACTTCGTGGGGTCCTTT (antisense; 2'-MOE modified, pattern not given here) [HPRT-664 MOE]”, for which the “TLR8 100 nM” value is reported as 2.725 and the “TLR8 500 nM” value worked out at 3.167.
On to “AATCCGCCCAAAGGGAACTG (antisense; 2'-MOE modified, pattern not given here) [HPRT-1027 MOE]”, for which the “TLR8 100 nM” value came out at 2.685 and the “TLR8 500 nM” value came out at 4.659.
On the same counts, the results for “ACAACCCCTTTCACCATCCC (antisense; 2'-MOE modified, pattern not given here) [MB21D1-689 MOE]” are 8.841 and 14.808.
On the same counts, the results for “ACAGTGTTGAGATACTCGGG (antisense; 2'-MOE modified, pattern not given here) [EGFR-3652 MOE]” are 5.681 and 8.261.
On the same counts, the results for “ACCCACTTGGCAGACCATCA (antisense; 2'-MOE modified, pattern not given here) [CTNN2B-1575 MOE]” are 2.822 and 3.985.
In the case of “ACTGACTGTCTTGAGGGTTC (antisense; 2'-MOE modified, pattern not given here) [MB21D1-1483 MOE]”, the “TLR8 100 nM” value was determined as 2.454 and the “TLR8 500 nM” value was found to be 3.185.
For the sequence “AGATCTGGCAGCCCATCAAC (antisense; 2'-MOE modified, pattern not given here) [CTNN2B-2516 MOE]”, the “TLR8 100 nM” value turned out to be 3.069 and the “TLR8 500 nM” value stood at 4.465.
Take “AGGTCTTGGCTTCGTGGAGC (antisense; 2'-MOE modified, pattern not given here) [MB21D1-522 MOE]”: the “TLR8 100 nM” value came to 3.657 and the “TLR8 500 nM” value was 5.064.
On the same counts, the results for “ATCCAACACTTCGTGGGGTC (antisense; 2'-MOE modified, pattern not given here) [HPRT-668 MOE]” are 1.437 and 1.519.
Take “ATGTCCCCTGTTGACTGGTC (antisense; 2'-MOE modified, pattern not given here) [HPRT-489 MOE]”: the “TLR8 100 nM” value came out at 1.752 and the “TLR8 500 nM” value is 2.118.
Turning to “ATGTCCCGCCACTGGATGCT (antisense; 2'-MOE modified, pattern not given here) [EGFR-727 MOE]”, the “TLR8 100 nM” value came to 2.029 and the “TLR8 500 nM” value is recorded as 1.708.
On the same counts, the results for “ATGTGATGGCCTCCCATCTC (antisense; 2'-MOE modified, pattern not given here) [HPRT-333 MOE]” are 0.939 and 1.429.
On the same counts, the results for “CAACACTTCGTGGGGTCCTT (antisense; 2'-MOE modified, pattern not given here) [HPRT-665 MOE]” are 1.320 and 1.639.
In the case of “CAAGGCCCTTCGCACTTCTT (antisense; 2'-MOE modified, pattern not given here) [EGFR-1225 MOE]”, the “TLR8 100 nM” value is listed as 1.115 and the “TLR8 500 nM” value turned out to be 1.236.
Regarding “CAATGTGATGGCCTCCCATC (antisense; 2'-MOE modified, pattern not given here) [HPRT-335 MOE]”, the “TLR8 100 nM” value was determined as 1.518 and the “TLR8 500 nM” value is reported as 1.677.
On the same counts, the results for “CACCCACTTGGCAGACCATC (antisense; 2'-MOE modified, pattern not given here) [CTNN2B-1576 MOE]” are 1.440 and 1.502.
“CAGATAGCACCTTCAGCACT (antisense; 2'-MOE modified, pattern not given here) [CTNN2B-1294 MOE]”: the “TLR8 100 nM” value is recorded as 1.773 and the “TLR8 500 nM” value came out at 2.356.
On to “CCAACACTTCGTGGGGTCCT (antisense; 2'-MOE modified, pattern not given here) [HPRT-666 MOE]”, for which the “TLR8 100 nM” value is 1.223 and the “TLR8 500 nM” value is on record as 1.185.
“CGTGTCTGGAAGCTTCCTTT (antisense; 2'-MOE modified, pattern not given here) [CTNN2B-808 MOE]”: the “TLR8 100 nM” value was determined as 1.476 and the “TLR8 500 nM” value was 1.222.
On the same counts, the results for “CTCTTGAAGCATCGTATCAC (antisense; 2'-MOE modified, pattern not given here) [CTNN2B-3648 MOE]” are 1.650 and 2.200.
On the same counts, the results for “CTGTGATCTTGACATGCTGC (antisense; 2'-MOE modified, pattern not given here) [EGFR-2790 MOE]” are 1.308 and 1.387.
On the same counts, the results for “CTTACTTTCCGAGGTGTCCA (antisense; 2'-MOE modified, pattern not given here) [CAMSAP1-1739 MOE]” are 3.892 and 4.827.
Take “GAACCACGTCTGCTCTAACA (antisense; 2'-MOE modified, pattern not given here) [CAMSAP1-1635 MOE]”: the “TLR8 100 nM” value is recorded as 2.787 and the “TLR8 500 nM” value came to 3.827.
On the same counts, the results for “GAGGTCTTGGCTTCGTGGAG (antisense; 2'-MOE modified, pattern not given here) [MB21D1-523 MOE]” are 1.822 and 2.164.
On the same counts, the results for “GAGTCTCTGGAGCTTCCTCT (antisense; 2'-MOE modified, pattern not given here) [CAMSAP1-2456 MOE]” are 0.849 and 0.683.
Regarding “GATGCTCCTCGGTCTCCCTT (antisense; 2'-MOE modified, pattern not given here) [CAMSAP1-1850 MOE]”, the “TLR8 100 nM” value stood at 1.392 and the “TLR8 500 nM” value is 1.954.
Regarding “GATGGCCTCCCATCTCCTTC (antisense; 2'-MOE modified, pattern not given here) [HPRT-329 MOE]”, the “TLR8 100 nM” value is 0.979 and the “TLR8 500 nM” value turned out to be 1.698.
On the same counts, the results for “GCCGCTTTTCTGTCTGGTTC (antisense; 2'-MOE modified, pattern not given here) [CTNN2B-311 MOE]” are 0.968 and 0.369.
On the same counts, the results for “GCGACTATACGCGCAATATG (antisense; 2'-MOE modified, pattern not given here) [NC5 2′MOE]” are 1.067 and 0.883.
On the same counts, the results for “GCGGAGGTCTTGGCTTCGTG (antisense; 2'-MOE modified, pattern not given here) [MB21D1-526 MOE]” are 1.598 and 2.226.
For “GCGTATTATAGCCGATTAAC (antisense; 2'-MOE modified, pattern not given here) [NC1 2′MOE]”, the “TLR8 100 nM” value is 1.883 and the “TLR8 500 nM” value is reported as 2.777.
For the sequence “GCGTGTCTGGAAGCTTCCTT (antisense; 2'-MOE modified, pattern not given here) [CTNN2B-809 MOE]”, the “TLR8 100 nM” value was found to be 1.179 and the “TLR8 500 nM” value was found to be 0.494.
“GCTTCAGGCGCTGCCTTGCC (antisense; 2'-MOE modified, pattern not given here) [CAMSAP1-2709 MOE]”: the “TLR8 100 nM” value came out at 0.985 and the “TLR8 500 nM” value worked out at 0.620.
